Experimental data reported in ChEMBL document CHEMBL1201862, “PubChem BioAssay data set” (2004).
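In this assay, cells in 96-well plates receive the compound at five concentrations for 48 hours. Endpoints are linearly interpolated between the surrounding concentrations. The concentration for 50% growth inhibition is given as GI50.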 Calls of active or inactive are those of the source. Cut-off read from the data, not from the text of the source: active = GI50 up to about 1.1 µM and inactive = higher.

How the values were obtained:
Assay in all cases: DTP human tumour cell line panel, 48 h
MDA-N = tested on: MDA-N
SR = tested on: SR
PC-3 = tested on: PC-3
SK-MEL-5 = tested on: SK-MEL-5
M14 = tested on: M14
UACC-62 = tested on: UACC-62
SN12C = tested on: SN12C
SNB-75 = tested on: SNB-75
OVCAR-4 = tested on: OVCAR-4
OVCAR-8 = tested on: OVCAR-8
SF-295 = tested on: SF-295
EKVX = tested on: EKVX
IGROV-1 = tested on: IGROV-1
U-251 = tested on: U-251
OVCAR-3 = tested on: OVCAR-3
MDA-MB-435 = tested on: MDA-MB-435
HCT-116 = tested on: HCT-116
HOP-62 = tested on: HOP-62
SF-268 = tested on: SF-268
SF-539 = tested on: SF-539
RPMI-8226 = tested on: RPMI-8226
SW-620 = tested on: SW-620
K562 = tested on: K562
HT-29 = tested on: HT-29
NCI-H522 = tested on: NCI-H522
NCI-H460 = tested on: NCI-H460
HOP-92 = tested on: HOP-92
SK-MEL-2 = tested on: SK-MEL-2
BT-549 = tested on: BT-549
Hs-578T = tested on: Hs-578T
MCF7 = tested on: MCF7
SNB-19 = tested on: SNB-19
UO-31 = tested on: UO-31
ACHN = tested on: ACHN
MDA-MB-231 = tested on: MDA-MB-231
T47D = tested on: T47D
OVCAR-5 = tested on: OVCAR-5
SK-MEL-28 = tested on: SK-MEL-28
NCI/ADR-RES = tested on: NCI/ADR-RES
SK-OV-3 = tested on: SK-OV-3
KM12 = tested on: KM12
NCI-H226 = tested on: NCI-H226
TK-10 = tested on: TK-10
CAKI-1 = tested on: CAKI-1
A498 = tested on: A498
COLO 205 = tested on: COLO 205
HCC 2998 = tested on: HCC 2998
UACC-257 = tested on: UACC-257
A549 = tested on: A549
Malme-3M = tested on: Malme-3M
NCI-H23 = tested on: NCI-H23
DU-145 = tested on: DU-145
HCT-15 = tested on: HCT-15
786-0 = tested on: 786-0
RXF 393 = tested on: RXF 393
HL-60 = tested on: HL-60
LOX IMVI = tested on: LOX IMVI
CCRF-CEM = tested on: CCRF-CEM
MOLT-4 = tested on: MOLT-4

Question: O=C1OC(CCCN2CCCCC2)(c2ccccc2)CC12CCCC2 (stereo not drawn) was tested. Which GI50 (MDA-N) did it give?
Answer: > 77.6 µM (inactive)

Question: What about the GI50 (SR) of the same molecule?
Answer: 34.4 µM (inactive)

Question: And the GI50 (PC-3)?
Answer: > 100 µM (inactive)

Question: What about the GI50 (SK-MEL-5) of the same molecule?
Answer: 18.7 µM (inactive)

Question: What about the GI50 (M14) of the same molecule?
Answer: 17.7 µM (inactive)

Question: What about the GI50 (UACC-62) of the same molecule?
Answer: 61.4 µM (inactive)

Question: And the GI50 (SN12C)?
Answer: > 100 µM (inactive)

Question: And the GI50 (SNB-75)?
Answer: 23 µM (inactive)

Question: And the GI50 (OVCAR-4)?
Answer: 97.9 µM (inactive)

Question: What about the GI50 (OVCAR-8) of the same molecule?
Answer: > 100 µM (inactive)

Question: What about the GI50 (SF-295) of the same molecule?
Answer: > 84.9 µM (inactive)

Question: What about the GI50 (EKVX) of the same molecule?
Answer: > 100 µM (inactive)

Question: What about the GI50 (IGROV-1) of the same molecule?
Answer: > 100 µM (inactive)

Question: And the GI50 (U-251)?
Answer: > 100 µM (inactive)

Question: What about the GI50 (OVCAR-3) of the same molecule?
Answer: > 100 µM (inactive)

Question: What about the GI50 (MDA-MB-435) of the same molecule?
Answer: 67.8 µM (inactive)

Question: And the GI50 (HCT-116)?
Answer: 73.1 µM (inactive)

Question: What about the GI50 (HOP-62) of the same molecule?
Answer: > 100 µM (inactive)

Question: And the GI50 (SF-268)?
Answer: > 100 µM (inactive)

Question: What about the GI50 (SF-539) of the same molecule?
Answer: 49.1 µM (inactive)

Question: What about the GI50 (RPMI-8226) of the same molecule?
Answer: 50 µM (inactive)

Question: What about the GI50 (SW-620) of the same molecule?
Answer: > 100 µM (inactive)

Question: And the GI50 (K562)?
Answer: 40.5 µM (inactive)

Question: What about the GI50 (HT-29) of the same molecule?
Answer: 37.3 µM (inactive)

Question: And the GI50 (NCI-H522)?
Answer: > 100 µM (inactive)

Question: What about the GI50 (NCI-H460) of the same molecule?
Answer: 89.1 µM (inactive)

Question: And the GI50 (HOP-92)?
Answer: 2.1 µM (inactive)

Question: And the GI50 (SK-MEL-2)?
Answer: > 100 µM (inactive)

Question: And the GI50 (BT-549)?
Answer: > 100 µM (inactive)

Question: And the GI50 (Hs-578T)?
Answer: 63.1 µM (inactive)

Question: What about the GI50 (MCF7) of the same molecule?
Answer: 58.2 µM (inactive)

Question: And the GI50 (SNB-19)?
Answer: > 100 µM (inactive)

Question: And the GI50 (UO-31)?
Answer: 73.1 µM (inactive)

Question: What about the GI50 (ACHN) of the same molecule?
Answer: > 100 µM (inactive)

Question: What about the GI50 (MDA-MB-231) of the same molecule?
Answer: > 75.9 µM (inactive)

Question: And the GI50 (T47D)?
Answer: > 100 µM (inactive)

Question: What about the GI50 (OVCAR-5) of the same molecule?
Answer: > 87.1 µM (inactive)

Question: And the GI50 (SK-MEL-28)?
Answer: 22.3 µM (inactive)

Question: What about the GI50 (NCI/ADR-RES) of the same molecule?
Answer: > 100 µM (inactive)

Question: And the GI50 (SK-OV-3)?
Answer: > 100 µM (inactive)

Question: What about the GI50 (KM12) of the same molecule?
Answer: > 100 µM (inactive)

Question: And the GI50 (NCI-H226)?
Answer: > 96.6 µM (inactive)

Question: What about the GI50 (TK-10) of the same molecule?
Answer: > 100 µM (inactive)

Question: What about the GI50 (CAKI-1) of the same molecule?
Answer: > 100 µM (inactive)

Question: And the GI50 (A498)?
Answer: 57.4 µM (inactive)

Question: And the GI50 (COLO 205)?
Answer: 32.3 µM (inactive)

Question: What about the GI50 (HCC 2998) of the same molecule?
Answer: 66.1 µM (inactive)

Question: What about the GI50 (UACC-257) of the same molecule?
Answer: 23.1 µM (inactive)

Question: And the GI50 (A549)?
Answer: > 100 µM (inactive)

Question: What about the GI50 (Malme-3M) of the same molecule?
Answer: 35.6 µM (inactive)

Question: And the GI50 (NCI-H23)?
Answer: > 89.7 µM (inactive)

Question: What about the GI50 (DU-145) of the same molecule?
Answer: > 100 µM (inactive)

Question: And the GI50 (HCT-15)?
Answer: > 95.3 µM

Question: What about the GI50 (786-0) of the same molecule?
Answer: > 100 µM (inactive)

Question: What about the GI50 (RXF 393) of the same molecule?
Answer: 80 µM (inactive)

Question: And the GI50 (HL-60)?
Answer: 52.5 µM (inactive)

Question: And the GI50 (LOX IMVI)?
Answer: > 72.1 µM (inactive)

Question: What about the GI50 (CCRF-CEM) of the same molecule?
Answer: 54.5 µM (inactive)

Question: What about the GI50 (MOLT-4) of the same molecule?
Answer: 40 µM (inactive)

Question: What does the source list for CC(C)=NOC(=O)CNC(=O)C(Cc1ccccc1)NC(=O)C(C)NC(=O)OC(C)(C)C (stereo not drawn)?
Answer: GI50 (MDA-N): > 100 µM (inactive); GI50 (SR): > 100 µM (inactive); GI50 (PC-3): > 100 µM (inactive); GI50 (SK-MEL-5): > 100 µM (inactive); GI50 (M14): > 100 µM (inactive); GI50 (UACC-62): > 100 µM (inactive); GI50 (SN12C): > 100 µM (inactive); GI50 (SNB-75): > 100 µM (inactive); GI50 (OVCAR-4): > 100 µM (inactive); GI50 (OVCAR-8): > 100 µM (inactive); GI50 (SF-295): > 100 µM (inactive); GI50 (EKVX): > 100 µM (inactive); GI50 (IGROV-1): > 100 µM (inactive); GI50 (U-251): > 100 µM (inactive); GI50 (OVCAR-3): > 100 µM (inactive); GI50 (MDA-MB-435): > 100 µM (inactive); GI50 (HCT-116): > 100 µM (inactive); GI50 (HOP-62): > 100 µM (inactive); GI50 (SF-268): > 100 µM (inactive); GI50 (SF-539): > 100 µM (inactive); GI50 (RPMI-8226): > 100 µM (inactive); GI50 (SW-620): > 100 µM (inactive); GI50 (K562): > 100 µM (inactive); GI50 (HT-29): > 100 µM (inactive); GI50 (NCI-H522): > 100 µM (inactive); GI50 (NCI-H460): > 100 µM (inactive); GI50 (HOP-92): > 100 µM (inactive); GI50 (SK-MEL-2): > 100 µM (inactive); GI50 (BT-549): > 100 µM (inactive); GI50 (Hs-578T): > 100 µM (inactive); GI50 (MCF7): > 100 µM (inactive); GI50 (SNB-19): > 100 µM (inactive); GI50 (UO-31): > 100 µM (inactive); GI50 (ACHN): > 100 µM (inactive); GI50 (MDA-MB-231): > 100 µM (inactive); GI50 (T47D): > 100 µM (inactive); GI50 (OVCAR-5): > 100 µM (inactive); GI50 (SK-MEL-28): > 100 µM (inactive); GI50 (NCI/ADR-RES): > 100 µM (inactive); GI50 (SK-OV-3): > 100 µM (inactive); GI50 (KM12): > 100 µM (inactive); GI50 (NCI-H226): > 100 µM (inactive); GI50 (TK-10): > 100 µM (inactive); GI50 (CAKI-1): > 100 µM (inactive); GI50 (A498): > 100 µM (inactive); GI50 (COLO 205): > 100 µM (inactive); GI50 (HCC 2998): > 100 µM (inactive); GI50 (UACC-257): > 100 µM (inactive); GI50 (A549): > 100 µM (inactive); GI50 (Malme-3M): > 100 µM (inactive); GI50 (NCI-H23): > 100 µM (inactive); GI50 (DU-145): > 100 µM (inactive); GI50 (HCT-15): > 100 µM; GI50 (786-0): > 100 µM (inactive); GI50 (RXF 393): > 100 µM (inactive); GI50 (HL-60): > 100 µM (inactive); GI50 (LOX IMVI): > 100 µM (inactive); GI50 (CCRF-CEM): > 100 µM (inactive); GI50 (MOLT-4): > 100 µM (inactive)
